Measured values as given in US12280023B2, “Fluorophenyl beta-hydroxyethylamines and their use in the treatment of hyperglycaemia” (ATROGI AB, priority 2017, dated 2025).
Counter-ions that a name gives are not always drawn.

Assays:
[1] = system: L6-myotubes; test: Glucose uptake (3H-2-deoxy-glucose) in differentiated L6-myotubes; assay type: cell-based; conditions: agonist final concentration 1×10^−5, 50 nM 3H-2-deoxy-glucose, relative to isoproterenol, read-out: Biological example 1: glucose uptake activity compared to that of isoproterenol
Description: (§1) L6-myoblasts were grown in Dulbecco's Modified Eagle's Medium (DMEM) containing 4.5 g/l glucose supplemented with 10% fetal bovine serum, 2 mM L-Glutamine, 50 U/ml penicillin, 50 μg/ml streptomycin and 10 mM HEPES. Cells were plated at 1×10^5 cells per ml in 24-well plates. After reaching 90% confluence the cells were grown in medium containing 2% FBS for 7 days where upon cells differentiated into myotubes.
Differentiated L6-myotubes were serum-starved over night in medium containing 0.5% fatty-acid free BSA and stimulated with agonist, final concentration 1×10^−5. After 1 h 40 min cells were washed with warm, glucose free medium or PBS and another portion of agonist was added to glucose free medium. After 20 min the cells were exposed to 50 nM ^3H-2-deoxy-glucose for another 10 min before washed in ice cold glucose free medium or PBS and lysed in 0.2 M NaOH for 1 h in 60° C.

[2] = system: Intracellular cAMP levels; test: Measurement of intracellular cAMP levels in differentiated L6 cells; assay type: cell-based; conditions: Rattus norvegicus, L6, 0.25 h, agonist final concentration 1×10^−5, 15 min, alpha screen cAMP kit, relative to isoproterenol, read-out: Biological example 2: intracellular cAMP activity compared to that of isoproterenol
Description: as §1
Differentiated cells were serum-starved over night and stimulated with agonist, final concentration 1×10^−5, for 15 min in stimulation buffer (HBSS supplemented with 1% BSA, 5 mM HEPES and 1 mM IBMX, pH 7.4). The medium was then aspirated and to end the reaction 100 μL of 95% EtOH was added to each well of a 24-well plate and cells were kept in −20° C. over night. The EtOH was let to evaporate and 500 μL of lysis buffer (1% BSA, 5 mM HEPES and 0.3% Tween-20, pH 7.4) was added to each well before put in −80° C. for 30 min and then kept in −20° C. Intracellular cAMP levels were detected using an alpha screen cAMP kit (6760635D from Perkin Elmer). The activity for each compound is compared to that of isoproterenol.

Q: `CCCCNC[C@H](O)c1ccc(F)cc1O` [Example 20, (R)-2-(2-(Butylamino)-1-hydroxyethyl)-5-fluorophenol acetate] was tested. Which Emax [1] did it give?
A: Its Emax is greater than 75%.

Q: And the Emax [2]?
A: The Emax was less than 25%.

Q: How did the Emax [1] turn out when `CC1(NC[C@H](O)c2cccc(F)c2)CC1` [Example 22, (R)-1-(3-fluorophenyl)-2-((1-methylcyclopropyl)amino)ethan-1-ol] was run?
A: Its Emax is greater than 75%.

Q: What about the Emax [2] of the same compound?
A: Its Emax is less than 25%.

Q: `CCC[C@@H](C)NC[C@H](O)c1ccc(F)cc1` [Example 10, (R)-1-(4-Fluorophenyl)-2-(((R)-pentan-2-yl)amino)ethan-1-ol] was tested. Which Emax [1] did it give?
A: The Emax was 50 to 75%.

Q: And the Emax [2]?
A: Its Emax is less than 25%.

Q: How did the Emax [1] turn out when `CC(C)(C)NC[C@H](O)c1cccc(O)c1F` [Example 25, (R)-3-(2-(tert-Butylamino)-1-hydroxyethyl)-2-fluorophenol] was run?
A: The Emax was 50 to 75%.

Q: What about the Emax [2] of the same compound?
A: The Emax was 50 to 75%.

Q: Which Emax [1] does the source give for `CCCCNCC(O)c1ccc(F)c(F)c1` (centres unmarked) [Example 2, 2-(Butylamino)-1-(3,4-difluorophenyl)ethan-1-ol] here?
A: The Emax was 50 to 75%.

Q: And the Emax [2]?
A: Its Emax is less than 25%.

Q: Which results are given for `O[C@@H](CNC1(C(F)(F)F)CC1)c1cccc(F)c1` [Example 30, (R)-1-(3-fluorophenyl)-2-O-(trifluoromethyl)cyclopropyl)amino)ethan-1-ol hydrochloride]?
A: Emax [1]: 50 to 75%; Emax [2]: < 25%

Q: Which results are given for `CCCCNCC(O)c1cc(F)cc(F)c1` (centres unmarked) [Example 1, 2-(Butylamino)-1-(3,5-difluorophenyl)ethan-1-ol]?
A: Emax [1]: 50 to 75%; Emax [2]: < 25%

Q: Which results are given for `CC(C)(C)NC[C@H](O)c1cccc(F)c1F` [Example 15, (R)-2-(tert-Butylamino)-1-(2,3-difluorophenyl)ethan-1-ol]?
A: Emax [1]: > 75%; Emax [2]: 25 to 50%

Q: How did the Emax [1] turn out when `CCCCNC[C@H](O)c1cccc(N)c1F` [Example 28, (R)-1-(3-Amino-2-fluorophenyl)-2-(butylamino)ethan-1-ol dihydrochloride] was run?
A: The Emax was 50 to 75%.

Q: And the Emax [2]?
A: Its Emax is less than 25%.

Q: For `CC(C)(C)CNC[C@H](O)c1cccc(F)c1` [Example 29, (R)-1-(3-Fluorophenyl)-2-(neopentylamino)ethan-1-ol hydrochloride], which Emax [1] is on record?
A: The Emax was 25 to 50%.

Q: And the Emax [2]?
A: Its Emax is less than 25%.

Q: For `CCCCNC[C@H](O)c1cccc(O)c1F` [Example 26, (R)-3-(2-(Butylamino)-1-hydroxyethyl)-2-fluorophenol], which Emax [1] is on record?
A: The Emax was greater than 75%.

Q: What about the Emax [2] of the same compound?
A: Its Emax is 25 to 50%.

Q: What does the source list for `CCCC(C)(C)NC[C@H](O)c1cccc(F)c1` [Example 14, (R)-1-(3-Fluorophenyl)-2-((2-methylpentan-2-yl)amino)ethan-1-ol]?
A: Emax [1]: > 75%; Emax [2]: < 25%

Q: Which results are given for `CC(C)(C)NC[C@H](O)c1cccc(N)c1F` [Example 27, (R)-1-(3-Amino-2-fluorophenyl)-2-(tert-butylamino)ethan-1-ol]?
A: Emax [1]: > 75%; Emax [2]: 25 to 50%

Q: How did the Emax [1] turn out when `CC(C)(C)NC[C@H](O)c1ccc(F)cc1O` [Example 19, (R)-2-(2-(tert-Butylamino)-1-hydroxyethyl)-5-fluorophenol acetate] was run?
A: Its Emax is 50 to 75%.

Q: What about the Emax [2] of the same compound?
A: Its Emax is less than 25%.

Q: Which results are given for `CCC[C@H](C)NC[C@H](O)c1ccc(F)cc1` [Example 11, (R)-1-(4-Fluorophenyl)-2-(((S)-pentan-2-yl)amino)ethan-1-ol]?
A: Emax [1]: 25 to 50%; Emax [2]: < 25%

Q: With `CC(C)(C)NC[C@H](O)c1ccc(F)c(O)c1` [Example 23, (R)-5-(2-(tert-Butylamino)-1-hydroxyethyl)-2-fluorophenol acetate] as the compound, how does the Emax [1] read?
A: The Emax was greater than 75%.

Q: What about the Emax [2] of the same compound?
A: Its Emax is 50 to 75%.

Q: What does the source list for `CCCCNCC(O)c1cc(F)c(N)c(F)c1` (centres unmarked) [Example 6, 1-(4-Amino-3,5-difluorophenyl)-2-(butylamino)ethan-1-ol]?
A: Emax [1]: > 75%; Emax [2]: > 75%

Q: With `CCCCNC[C@H](O)c1cccc(F)c1F` [Example 16, (R)-2-(Butylamino)-1-(2,3-difluorophenyl)ethan-1-ol] as the compound, how does the Emax [1] read?
A: Its Emax is greater than 75%.

Q: And the Emax [2]?
A: The Emax was less than 25%.

Q: For `CCCCNCC(O)c1ccc(F)c(NC(C)=O)c1F` (centres unmarked) [Example 8, N-(3-(2-(Butylamino)-1-hydroxyethyl)-2,6-difluorophenyl)acetamide], which Emax [1] is on record?
A: Its Emax is 25 to 50%.

Q: And the Emax [2]?
A: Its Emax is less than 25%.

Q: Which Emax [1] does the source give for `CC1(NC[C@H](O)c2cccc(F)c2)CCC1` [Example 21, (R)-1-(3-fluorophenyl)-2-((1-methylcyclobutyl)amino)ethan-1-ol] here?
A: The Emax was greater than 75%.

Q: And the Emax [2]?
A: Its Emax is 25 to 50%.

Q: What does the source list for `CCCCNCC(O)c1ccc(F)c(N)c1F` (centres unmarked) [Example 7, 1-(3-Amino-2,4-difluorophenyl)-2-(butylamino)ethan-1-ol]?
A: Emax [1]: > 75%; Emax [2]: < 25%

Q: `CCCCNC[C@H](O)c1ccc(F)cc1` [Example 3, (R)-2-(Butylamino)-1-(4-fluorophenyl)ethan-1-ol] was tested. Which Emax [1] did it give?
A: Its Emax is 25 to 50%.

Q: And the Emax [2]?
A: The Emax was less than 25%.

Q: Which Emax [1] does the source give for `CC(C)(C)NC[C@H](O)c1ccc(F)c(N)c1F` [Example 31, (R)-1-(3-amino-2,4-difluorophenyl)-2-(tert-butylamino)ethan-1-ol hydrochloride] here?
A: Its Emax is greater than 75%.

Q: What about the Emax [2] of the same compound?
A: Its Emax is less than 25%.

Q: With `CCCCNC[C@H](O)c1cccc(F)c1` [Example 4, (R)-2-(Butylamino)-1-(3-fluorophenyl)ethan-1-ol] as the compound, how does the Emax [1] read?
A: The Emax was greater than 75%.

Q: And the Emax [2]?
A: The Emax was less than 25%.

Q: For `CC(C)(C)NC[C@H](O)c1cccc(F)c1` [Example 5, (R)-2-(tert-Butylamino)-1-(3-fluorophenyl)ethan-1-ol], which Emax [1] is on record?
A: The Emax was greater than 75%.

Q: And the Emax [2]?
A: The Emax was less than 25%.

Q: What does the source list for `Cc1c(F)cccc1[C@@H](O)CNC(C)(C)C` [Example 32, (R)-2-(tert-butylamino)-1-(3-fluoro-2-methylphenyl)ethan-1-ol]?
A: Emax [1]: > 75%; Emax [2]: < 25%

Q: How did the Emax [1] turn out when `CCC[C@H](C)NC[C@H](O)c1cccc(F)c1` [Example 13, (R)-1-(3-fluorophenyl)-2-(((S)-pentan-2-yl)amino)ethan-1-ol] was run?
A: Its Emax is 50 to 75%.

Q: And the Emax [2]?
A: Its Emax is less than 25%.

Q: Which Emax [1] does the source give for `CCCCNC[C@H](O)c1ccccc1F` [Example 18, (R)-2-(Butylamino)-1-(2-fluorophenyl)ethan-1-ol] here?
A: Its Emax is greater than 75%.

Q: And the Emax [2]?
A: The Emax was less than 25%.

Q: `CC(C)(C)NC[C@H](O)c1ccccc1F` [Example 17, (R)-2-(tert-Butylamino)-1-(2-fluorophenyl)ethan-1-ol] was tested. Which Emax [1] did it give?
A: Its Emax is 50 to 75%.

Q: What about the Emax [2] of the same compound?
A: Its Emax is less than 25%.

Q: Which results are given for `CCCCNC[C@H](O)c1ccc(F)c(O)c1` [Example 24, (R)-5-(2-(Butylamino)-1-hydroxyethyl)-2-fluorophenol acetate]?
A: Emax [1]: > 75%; Emax [2]: < 25%

Q: `CCC[C@@H](C)NC[C@H](O)c1cccc(F)c1` [Example 12, (R)-1-(3-fluorophenyl)-2-(((R)-pentan-2-yl)amino)ethan-1-ol] was tested. Which Emax [1] did it give?
A: Its Emax is greater than 75%.

Q: What about the Emax [2] of the same compound?
A: Its Emax is less than 25%.
